Patent US20100105651A1, “ANTAGONISTS OF SNS SODIUM CHANNELS” (priority 2005, published 2010)
pIC50: −log10 of the molar value. Structures can show the parent of a compound that is named as a salt.

The compounds below were run against T1, human NaV1.8 (hNaV1.8) ion channel (Homo sapiens, UniProt Q9Y5Y9) (assay: Inhibition of Human NaV1.8 stably expressed in SH-SY-5Y cells (membrane potential dye fluorescence assay)). Details: SH-SY-5Y cells stably expressing hNaV1.8; FLIPR membrane potential dye; 10 μM pyrethroid, 250 nM TTX; test range 100 μM-0.05 μM; read-out: hNav1.8 IC50.
T1 construct: expressed in transfected cells
T1 sequence (Q9Y5Y9 whole entry): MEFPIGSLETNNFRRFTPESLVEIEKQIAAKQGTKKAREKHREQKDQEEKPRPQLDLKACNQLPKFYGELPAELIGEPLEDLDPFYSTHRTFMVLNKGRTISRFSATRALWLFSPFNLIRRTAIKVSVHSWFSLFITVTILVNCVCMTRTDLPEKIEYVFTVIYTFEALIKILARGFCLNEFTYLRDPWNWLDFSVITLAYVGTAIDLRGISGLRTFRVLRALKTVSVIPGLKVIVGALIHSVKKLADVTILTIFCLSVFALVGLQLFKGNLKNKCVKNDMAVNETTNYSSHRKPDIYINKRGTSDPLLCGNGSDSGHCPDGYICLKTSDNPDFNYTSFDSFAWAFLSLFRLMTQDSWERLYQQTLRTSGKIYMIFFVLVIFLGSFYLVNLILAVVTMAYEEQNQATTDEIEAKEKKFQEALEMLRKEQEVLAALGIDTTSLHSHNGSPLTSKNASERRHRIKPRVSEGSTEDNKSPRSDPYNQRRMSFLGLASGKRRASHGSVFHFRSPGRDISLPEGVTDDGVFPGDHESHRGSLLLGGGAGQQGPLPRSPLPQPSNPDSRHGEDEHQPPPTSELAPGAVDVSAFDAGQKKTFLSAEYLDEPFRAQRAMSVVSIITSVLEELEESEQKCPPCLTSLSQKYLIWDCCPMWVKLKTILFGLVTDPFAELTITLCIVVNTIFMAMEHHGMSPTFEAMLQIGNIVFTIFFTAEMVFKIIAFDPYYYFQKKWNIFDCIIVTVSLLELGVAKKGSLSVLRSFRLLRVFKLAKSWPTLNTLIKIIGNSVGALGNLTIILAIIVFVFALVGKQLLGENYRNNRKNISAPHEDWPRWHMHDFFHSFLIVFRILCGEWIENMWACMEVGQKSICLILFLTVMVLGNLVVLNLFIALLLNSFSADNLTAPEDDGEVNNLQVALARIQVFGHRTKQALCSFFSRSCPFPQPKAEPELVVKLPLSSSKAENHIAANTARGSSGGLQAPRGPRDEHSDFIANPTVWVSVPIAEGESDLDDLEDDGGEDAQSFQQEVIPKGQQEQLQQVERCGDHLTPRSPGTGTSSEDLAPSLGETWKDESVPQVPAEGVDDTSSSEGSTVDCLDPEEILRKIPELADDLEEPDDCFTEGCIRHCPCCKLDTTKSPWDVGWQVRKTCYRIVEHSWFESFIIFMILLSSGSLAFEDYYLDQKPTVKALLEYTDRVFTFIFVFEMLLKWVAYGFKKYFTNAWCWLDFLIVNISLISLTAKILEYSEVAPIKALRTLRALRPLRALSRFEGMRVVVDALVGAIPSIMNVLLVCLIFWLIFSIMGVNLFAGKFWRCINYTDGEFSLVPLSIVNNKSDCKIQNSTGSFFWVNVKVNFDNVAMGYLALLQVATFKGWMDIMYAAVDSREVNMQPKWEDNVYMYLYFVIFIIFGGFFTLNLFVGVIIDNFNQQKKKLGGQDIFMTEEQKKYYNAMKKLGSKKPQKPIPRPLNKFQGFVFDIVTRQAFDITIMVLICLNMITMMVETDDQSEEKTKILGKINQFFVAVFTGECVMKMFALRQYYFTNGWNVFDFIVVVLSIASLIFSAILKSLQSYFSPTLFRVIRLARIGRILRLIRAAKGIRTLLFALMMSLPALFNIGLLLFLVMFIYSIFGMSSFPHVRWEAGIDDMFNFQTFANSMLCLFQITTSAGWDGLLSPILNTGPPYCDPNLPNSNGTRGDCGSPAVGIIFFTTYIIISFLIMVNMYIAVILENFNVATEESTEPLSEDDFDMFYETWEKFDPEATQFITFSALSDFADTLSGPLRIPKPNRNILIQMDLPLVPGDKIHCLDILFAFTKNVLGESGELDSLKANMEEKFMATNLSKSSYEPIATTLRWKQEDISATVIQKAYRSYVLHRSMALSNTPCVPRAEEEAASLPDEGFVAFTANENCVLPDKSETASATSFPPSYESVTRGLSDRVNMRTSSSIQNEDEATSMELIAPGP
Format: cell-based
For Cc1ccc(C(C)NC2CN(C(=O)Nc3ccc(Oc4ccccc4)cc3)C2)cc1 (stereo not shown) [Example 121, 3-(1-p-Tolyl-ethylamino)-azetidine-1-carboxylic acid (4-phenoxy-phenyl)-amide], the pIC50 was 6.40. With Cc1ccc(C(C)NC2CN(C(=O)Nc3ccc(C(F)(F)F)cc3)C2)cc1 (stereo not shown) [Example 122, 3-(1-p-Tolyl-ethylamino)-azetidine-1-carboxylic acid (4-trifluoromethyl-phenyl)-amide] the pIC50 was 5.77. Work on O=C(Nc1ccc(Oc2ccccc2)cc1)N1CC(NC2COc3ccccc32)C1 (stereo not shown) [Example 123, 3-(2,3-Dihydro-benzofuran-3-ylamino)-azetidine-1-carboxylic acid (4-phenoxy-phenyl)-amide] yielded a pIC50 of 5.77. Compound CC(NC1CN(C(=O)Nc2ccc(C(F)(F)F)cc2)C1)c1ccccc1Cl (stereo not shown) [Example 124, 3-[1-(2-Chloro-phenyl)-ethylamino]-azetidine-1-carboxylic acid (4-trifluoromethyl-phenyl)-amide] has a pIC50 of 5.61. For CC(NC1CN(C(=O)Nc2ccc(C(F)(F)F)cc2)C1)c1ccc(C#N)cc1 (stereo not shown) [Example 126, 3-[1-(4-Cyano-phenyl)-ethylamino]-azetidine-1-carboxylic acid (4-trifluoromethyl-phenyl)-amide], the pIC50 was 4.63. CC(NC1CN(C(=O)Nc2ccc(Oc3ccc(F)cc3)cc2)C1)c1ccc(C#N)cc1 (stereo not shown) [Example 127, 3-[1-(4-Cyano-phenyl)-ethylamino]-azetidine-1-carboxylic acid [4-(4-fluoro-phenoxy)-phenyl]-amide] gave a pIC50 of 5.68. With O=C(Nc1ccc(Oc2ccccc2)cc1)N1CC(NCc2c(F)cccc2F)C1 [Example 128, 3-(2,6-Difluoro-benzylamino)-azetidine-1-carboxylic acid (4-phenoxy-phenyl)-amide] the pIC50 was 6.08. O=C(Nc1ccc(Oc2ccc(F)cc2)cc1)N1CC(NCc2c(F)cccc2F)C1 [Example 129, 3-(2,6-Difluoro-benzylamino)-azetidine-1-carboxylic acid [4-(4-fluoro-phenoxy)-phenyl]-amide] gave a pIC50 of 5.83. Work on CC(NC1CN(C(=O)Nc2ccc(Oc3ccccc3)cc2)C1)c1c(F)cccc1F (stereo not shown) [Example 130, 3-[1-(2,6-Difluoro-phenyl)-ethylamino]-azetidine-1-carboxylic acid (4-phenoxy-phenyl)-amide] yielded a pIC50 of 6.12. With CC(NC1CN(C(=O)Nc2ccc(Oc3ccc(F)cc3)cc2)C1)c1c(F)cccc1F (stereo not shown) [Example 131, 3-[1-(2,6-Difluoro-phenyl)-ethylamino]-azetidine-1-carboxylic acid [4-(4-fluoro-phenoxy)-phenyl]-amide] the pIC50 was 6.28. For O=C(Nc1ccc(Oc2ccccc2F)cc1)N1CC(NC2CCc3cc(Cl)ccc32)C1 (stereo not shown) [Example 133, 3-(5-Chloro-indan-1-ylamino)-azetidine-1-carboxylic acid [4-(2-fluoro-phenoxy)-phenyl]-amide], the pIC50 was 5.81. With COc1ccc2c(c1)CCC2NC1CN(C(=O)Nc2ccc(Oc3cccc(F)c3)cc2)C1 (stereo not shown) [Example 134, 3-(5-Methoxy-indan-1-ylamino)-azetidine-1-carboxylic acid [4-(3-fluoro-phenoxy)-pheny]-amide] the pIC50 was 6.77. O=C(Nc1ccc(Oc2ccc(F)cc2)nc1)N1CC(NC2CCc3cc(F)ccc32)C1 (stereo not shown) [Example 135, 3-(5-Fluoro-indan-1-ylamino)-azetidine-1-carboxylic acid [6-(4-fluoro-phenoxy)-pyridin-3-yl]-amide methanesulfonate salt] showed a pIC50 of 5.66. In the case of O=C(Nc1ccc(Oc2ccc(F)cc2)cc1)N1CC(NC2CCc3cc(F)ccc32)C1 (stereo not shown) [Example 136, 3-(5-Fluoro-indan-1-ylamino)-azetidine-1-carboxylic acid [4-(4-fluoro-phenoxy)-phenyl]-amide methanesulfonate salt], the pIC50 was 6.68. O=C(Nc1ccc(Oc2ccccc2)cc1)N1CC(NC2CCc3cc(F)ccc32)C1 (stereo not shown) [Example 137, 3-(5-Fluoro-indan-1-ylamino)-azetidine-1-carboxylic acid (4-phenoxy-phenyl)-amide fumarate salt] showed a pIC50 of 6.57. In the case of O=C(Nc1ccc(Oc2ccc(F)cc2)cc1)N1CC(NC2CCc3cc(Cl)ccc32)C1 (stereo not shown) [Example 138, 3-(5-Chloro-indan-1-ylamino)-azetidine-1-carboxylic acid [4-(4-fluoro-phenoxy)-phenyl]-amide methanesulfonate salt], the pIC50 was 6.37.
